Data taken from US20170121315A1, “HETEROBICYCLICALLY SUBSTITUTED 4-OXOBUTANE ACID DERIVATIVES AND USE THEREOF” (priority 2014, published 2017).

How the values were obtained:
Format in all cases: biochemical
[1] = target: T1, MMP-10 (Homo sapiens, UniProt P09238); experiment: In vitro MMP-10 inhibition test; conditions: human MMP-10
T1 construct: purchased R&D Systems 910-MP
Description: (§1) The MMP-mediated amidolytic cleavage of a suitable peptide substrate leads to an increase in fluorescent light here too. The signal intensity of the fluorescent light is directly proportional to the enzyme activity. The active concentration of a test compound at which half the enzyme is inhibited (50% signal intensity of the fluorescent light) is reported as the IC50 value.
(§2) Recombinant MMP-10 (R&D Systems, 910-MP) is chemically activated in accordance with the manufacturer's instructions using APMA. 1 μl of the test compound to be analysed (as a solution in DMSO, suitable concentrations e.g. 1 nM to 30 μM) is pipetted into 24 μl of activated enzyme (final concentration e.g. 2 nM) in reaction buffer (50 mM Tris/HCl pH 7.5, 10 mM CaCl2, 150 mM NaCl, 0.05% Brij®-35) in a white 384-hole microtiter plate (MTP). The enzymatic reaction is started by adding the intramolecularly quenched Mca-Arg-Pro-Lys-Pro-Val-Glu-Nval-Trp-Arg-Lys(Dnp)-NH2 substrate (final concentration e.g. 10 μM; R&D Systems, ES-002), so as to result in a total test volume of 50 μl. The course of the MMP-10 reaction is measured by measuring the fluorescence intensity (excitation 320 nm, emission 410 nm) over a suitable period of time (e.g. over 120 min at a temperature of 32° C.).

[2] = target: T2, MMP-7 (Homo sapiens, UniProt P09237); experiment: In vitro MMP-7 inhibition test; conditions: human MMP-7
T2 construct: purchased R&D Systems 907-MP
T2 sequence (P09237 95-267): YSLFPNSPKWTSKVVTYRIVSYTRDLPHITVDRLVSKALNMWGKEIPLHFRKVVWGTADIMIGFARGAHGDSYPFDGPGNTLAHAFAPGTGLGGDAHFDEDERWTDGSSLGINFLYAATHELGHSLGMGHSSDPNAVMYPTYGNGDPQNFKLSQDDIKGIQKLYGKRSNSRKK
Description: as §1
as §2, with “Recombinant MMP-7 (from R&D” for “Recombinant MMP-10 (R&D”, “Systems, 907-MP)” for “Systems, 910-MP)”, “e.g. 0.5” for “e.g. 2”, “quenched Mca-Pro-Leu-Gly-Leu-Dpa(Dnp)-Ala-Arg-NH2” for “quenched Mca-Arg-Pro-Lys-Pro-Val-Glu-Nval-Trp-Arg-Lys(Dnp)-NH2”, “Systems, ES-001),” for “Systems, ES-002),”, “the MMP-7” for “the MMP-10”

[3] = target: T3, MMP-2 (Homo sapiens, UniProt P08253); experiment: In vitro MMP-2 inhibition test; conditions: human MMP-2
T3 construct: purchased R&D Systems 902-MP
T3 sequence (P08253 110-660): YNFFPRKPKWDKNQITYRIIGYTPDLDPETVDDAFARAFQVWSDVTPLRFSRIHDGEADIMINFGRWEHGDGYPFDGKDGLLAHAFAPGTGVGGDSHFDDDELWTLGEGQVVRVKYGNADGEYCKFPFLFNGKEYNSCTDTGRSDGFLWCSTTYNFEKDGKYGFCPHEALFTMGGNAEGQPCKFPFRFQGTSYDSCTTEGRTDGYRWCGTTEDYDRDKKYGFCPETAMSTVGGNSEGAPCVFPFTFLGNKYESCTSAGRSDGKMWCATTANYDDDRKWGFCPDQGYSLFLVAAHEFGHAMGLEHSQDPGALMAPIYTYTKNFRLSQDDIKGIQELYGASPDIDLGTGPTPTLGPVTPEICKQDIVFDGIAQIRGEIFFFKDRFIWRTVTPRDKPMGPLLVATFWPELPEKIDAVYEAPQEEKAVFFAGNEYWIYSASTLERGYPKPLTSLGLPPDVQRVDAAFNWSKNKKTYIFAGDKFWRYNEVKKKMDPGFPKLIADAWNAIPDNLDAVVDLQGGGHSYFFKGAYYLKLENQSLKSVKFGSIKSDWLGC
Description: as §1
as §2, with “MMP-2” for “MMP-10”, “902-MP)” for “910-MP)”, “Mca-Pro-Leu-Gly-Leu-Dpa(Dnp)-Ala-Arg-NH2” for “Mca-Arg-Pro-Lys-Pro-Val-Glu-Nval-Trp-Arg-Lys(Dnp)-NH2”, “ES-001),” for “ES-002),”

[4] = target: T4, MMP-8 (Homo sapiens, UniProt P22894); experiment: In vitro MMP-8 inhibition test; conditions: human MMP-8
T4 construct: purchased R&D Systems 908-MP
Description: as §1
as §2, with “Recombinant MMP-8” for “Recombinant MMP-10”, “Systems, 908-MP)” for “Systems, 910-MP)”, “e.g. 0.5” for “e.g. 2”, “quenched Mca-Pro-Leu-Gly-Leu-Dpa(Dnp)-Ala-Arg-NH2” for “quenched Mca-Arg-Pro-Lys-Pro-Val-Glu-Nval-Trp-Arg-Lys(Dnp)-NH2”, “Systems, ES-001),” for “Systems, ES-002),”, “the MMP-8” for “the MMP-10”

T4 sequence (P22894 101-467): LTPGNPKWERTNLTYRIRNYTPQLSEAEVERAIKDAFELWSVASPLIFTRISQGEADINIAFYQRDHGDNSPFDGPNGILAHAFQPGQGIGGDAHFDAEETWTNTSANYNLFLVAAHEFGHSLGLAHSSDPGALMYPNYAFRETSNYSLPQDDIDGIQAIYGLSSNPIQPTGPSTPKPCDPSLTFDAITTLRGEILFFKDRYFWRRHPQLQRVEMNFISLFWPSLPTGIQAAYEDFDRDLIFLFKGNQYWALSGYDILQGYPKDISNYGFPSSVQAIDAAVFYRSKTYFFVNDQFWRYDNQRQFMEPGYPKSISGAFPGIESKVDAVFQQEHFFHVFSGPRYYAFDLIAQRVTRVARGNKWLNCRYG
T1 sequence (P09238 99-476): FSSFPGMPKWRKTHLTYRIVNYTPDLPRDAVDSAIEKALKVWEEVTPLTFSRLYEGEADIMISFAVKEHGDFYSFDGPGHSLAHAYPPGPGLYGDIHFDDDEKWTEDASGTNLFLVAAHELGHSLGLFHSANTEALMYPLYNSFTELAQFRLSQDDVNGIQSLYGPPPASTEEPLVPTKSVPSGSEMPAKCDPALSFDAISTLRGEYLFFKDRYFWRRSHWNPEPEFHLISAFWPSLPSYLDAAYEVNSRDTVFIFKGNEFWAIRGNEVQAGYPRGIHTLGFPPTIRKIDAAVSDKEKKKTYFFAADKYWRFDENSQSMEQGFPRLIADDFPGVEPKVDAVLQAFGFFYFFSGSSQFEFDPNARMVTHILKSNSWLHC

Row | Structure (SMILES) | IC50 [1] [µM] | IC50 [2] [µM] | IC50 [3] [µM] | IC50 [4] [µM]
1 | O=C(CC(CCn1nnc2ccccc2c1=O)C(=O)O)c1noc2cc(OCC3CCCCC3)ccc12 (racemic) [Example 153, (+/−)-4-[6-(Cyclohexylmethoxy)-1,2-benzoxazol-3-yl]-4-oxo-2-[2-(4-oxo-1,2,3-benzotriazin-3(4H)-yl)ethyl]butanoic acid] | 14 | > 40 | 0.42 | 1.7
2 | O=C(O)[C@H]1[C@H](Cn2nnc3ccc(C(F)(F)F)cc3c2=O)CC[C@@H]1C(=O)c1cc2cc(OCCc3ccccc3)ccc2o1 (racemic) [Example 157, (+/−)-(1RS,2SR,5RS)-2-{[4-Oxo-6-(trifluoromethyl)-1,2,3-benzotriazin-3(4H)-yl]methyl}-5-{[5-(2-phenylethoxy)-1-benzofur-2-yl]carbonyl}cyclopentanecarboxylic acid (racemate)] | 0.19 | 0.16 | 0.88 | 0.15
3 | CCCCCOc1ccc2c(C(=O)CC(CCn3nnc4ccccc4c3=O)C(=O)O)coc2c1 (single isomer, unassigned) [Example 91, 4-Oxo-2-[2-(4-oxo-1,2,3-benzotriazin-3(4H)-yl)ethyl]-4-[6-(pentyloxy)-1-benzofur-3-yl]butanoic acid] | 4.7 | > 40 | 0.096 | 0.94
4 | O=C(CC(CCn1nnc2ccccc2c1=O)C(=O)O)c1cc2cc(OCCc3ccccc3)ccc2o1 (single isomer, unassigned; (+)) [Example 21, (+)-4-Oxo-2-[2-(4-oxo-1,2,3-benzotriazin-3(4H)-yl)ethyl]-4-[5-(2-phenylethoxy)-1-benzofur-2-yl]butanoic acid] | 13 | > 40 | 1.9 | 14
5 | O=C(CC(CCn1nnc2ccccc2c1=O)C(=O)O)c1cc2cc(OCc3ccc(F)cc3)ccc2o1 (single isomer, unassigned; (+)) [Example 23, (+)-4-{5-[(4-Fluorobenzyl)oxy]-1-benzofur-2-yl}-4-oxo-2-[2-(4-oxo-1,2,3-benzotriazin-3(4H)-yl)ethyl]butanoic acid] | 11 | > 40 | 1.9 | 6.3
6 | O=C(CC(CCn1nnc2ccccc2c1=O)C(=O)O)c1cc2cc(OCc3ccccc3)ccc2o1 (single isomer, unassigned; (+)) [Example 30, (+)-4-[5-(Benzyloxy)-1-benzofur-2-yl]-4-oxo-2-[2-(4-oxo-1,2,3-benzotriazin-3(4H)-yl)ethyl]butanoic acid] | 30 | > 40 | 6.1 | 32
7 | NC(=O)c1cccc(COc2ccc3oc(C(=O)CC(CCn4nnc5ccccc5c4=O)C(=O)O)cc3c2)c1 (single isomer, unassigned; (+)) [Example 34, (+)-4-{5-[(3-Carbamoylbenzyl)oxy]-1-benzofur-2-yl}-4-oxo-2-[2-(4-oxo-1,2,3-benzotriazin-3(4H)-yl)ethyl]butanoic acid] | 14 | 25 | 0.49 | 4.9

Further lines, results first:

Row | IC50 [1] [µM] | IC50 [2] [µM] | IC50 [3] [µM] | IC50 [4] [µM] | Structure (SMILES)
8 | 10 | > 40 | 0.43 | 2.8 | O=C(CC(CCn1nnc2ccccc2c1=O)C(=O)O)c1noc2cc(OCc3ccccc3)ccc12 (racemic) [Example 145, (+/−)-4-[6-(Benzyloxy)-1,2-benzoxazol-3-yl]-4-oxo-2-[2-(4-oxo-1,2,3-benzotriazin-3(4H)-yl)ethyl]butanoic acid]
9 | 0.2 | > 40 | 0.27 | 0.27 | O=C(CC(CCn1nnc2ccccc2c1=O)C(=O)O)c1noc2cc(OCc3cccnc3)ccc12 (racemic) [Example 148, (+/−)-4-Oxo-2-[2-(4-oxo-1,2,3-benzotriazin-3(4H)-yl)ethyl]-4-[6-(pyridin-3-ylmethoxy)-1,2-benzoxazol-3-yl]butanoic acid]
10 | > 40 | 29 | 0.51 | 0.4 | O=C(CC(CCn1nnc2ccccc2c1=O)C(=O)O)c1noc2cc(OCC3CC3)ccc12 (racemic) [Example 150, (+/−)-4-[6-(Cyclopropylmethoxy)-1,2-benzoxazol-3-yl]-4-oxo-2-[2-(4-oxo-1,2,3-benzotriazin-3(4H)-yl)ethyl]butanoic acid]
11 | 3.3 | 18 | 5.6 | 0.97 | O=C(CC(CCn1nnc2ccc(C(F)(F)F)cc2c1=O)C(=O)O)c1noc2cc(OCc3ccccc3)ccc12 (racemic) [Example 154, (+/−)-4-[6-(Benzyloxy)-1,2-benzoxazol-3-yl]-4-oxo-2-{2-[4-oxo-6-(trifluoromethyl)-1,2,3-benzotriazin-3(4H)-yl]ethyl}butanoic acid]
12 | 5.1 | 24 | 4.5 | 0.082 | O=C(CC(CCn1nnc2ccc(C(F)(F)F)cc2c1=O)C(=O)O)c1noc2cc(OCC3CCOCC3)ccc12 (racemic) [Example 155, (+/−)-4-Oxo-2-{2-[4-oxo-6-(trifluoromethyl)-1,2,3-benzotriazin-3(4H)-yl]ethyl}-4-[6-(tetrahydro-2H-pyran-4-ylmethoxy)-1,2-benzoxazol-3-yl]butanoic acid]
13 | 28 | > 40 | 1.4 | 2.8 | O=C(CC(CCn1nnc2ccccc2c1=O)C(=O)O)c1onc2cc(OCc3ccccc3)ccc12 (racemic) [Example 156, (+/−)-4-[6-(Benzyloxy)-2,1-benzoxazol-3-yl]-4-oxo-2-[2-(4-oxo-1,2,3-benzotriazin-3(4H)-yl)ethyl]butanoic acid]
